Experimental data reported in article PMC10069031 (European Journal of Medical Research, 2023).
Where two headings read alike, the source gives them in different places.

Target: T1, murine CSF1R (Mus musculus, UniProt P09581)
T1 construct: Western blot analysis of total lysates (40 µg/lane) from mouse RAW264.7 cells treated as indicated; endogenous in cells; host or cells: RAW264.7 (murine macrophages)
T1 sequence (P09581 20-977): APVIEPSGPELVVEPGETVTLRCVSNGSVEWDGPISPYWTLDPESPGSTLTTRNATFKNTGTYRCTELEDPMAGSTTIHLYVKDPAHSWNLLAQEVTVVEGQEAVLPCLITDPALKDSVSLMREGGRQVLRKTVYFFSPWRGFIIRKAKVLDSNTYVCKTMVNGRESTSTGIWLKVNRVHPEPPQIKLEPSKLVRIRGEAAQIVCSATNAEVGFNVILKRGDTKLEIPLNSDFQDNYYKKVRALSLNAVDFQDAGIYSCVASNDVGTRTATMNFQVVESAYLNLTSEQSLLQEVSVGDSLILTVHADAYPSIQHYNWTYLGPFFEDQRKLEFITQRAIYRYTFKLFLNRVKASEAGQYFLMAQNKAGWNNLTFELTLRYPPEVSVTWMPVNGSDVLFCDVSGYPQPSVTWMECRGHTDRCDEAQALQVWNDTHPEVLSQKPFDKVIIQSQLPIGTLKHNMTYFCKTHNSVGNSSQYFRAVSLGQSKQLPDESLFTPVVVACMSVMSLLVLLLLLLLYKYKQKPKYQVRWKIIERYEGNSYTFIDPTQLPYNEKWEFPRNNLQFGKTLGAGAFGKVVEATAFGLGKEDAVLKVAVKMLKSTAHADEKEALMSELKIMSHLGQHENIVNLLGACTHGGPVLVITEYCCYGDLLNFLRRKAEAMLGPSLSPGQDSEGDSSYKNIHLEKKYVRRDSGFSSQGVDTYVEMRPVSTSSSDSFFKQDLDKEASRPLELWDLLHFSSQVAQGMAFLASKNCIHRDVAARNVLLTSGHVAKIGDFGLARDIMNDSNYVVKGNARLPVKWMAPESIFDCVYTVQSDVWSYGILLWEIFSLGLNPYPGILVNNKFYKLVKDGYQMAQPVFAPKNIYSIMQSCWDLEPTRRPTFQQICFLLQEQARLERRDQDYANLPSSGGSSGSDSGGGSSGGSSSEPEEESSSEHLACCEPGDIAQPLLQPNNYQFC
Experiment: CSF1R inhibition in RAW264.7 cells (western blot of pCSF1R)
Type: cell-based
Protocol: RAW264.7 cells (10^6) were seeded into cell culture dishes 6 cm in diameter and incubated in 4 mL RPMI/10% fetal bovine serum (Biochrom) for 24 h at 37 °C in a humidified 5% CO2 atmosphere. Cells were washed once with phosphate-buffered saline (PBS) and starved in 3 mL RPMI/0.1% bovine serum albumin for another 24 h. Cells were then treated for 1 h at 37 °C with drugs at the indicated final concentrations, with 0.5% DMSO as vehicle control, or left untreated, and finally stimulated for 2 min at 37 °C with 100 ng/mL recombinant mouse CSF1 (R&D Systems) by adding 1 mL prewarmed starving medium containing 400 ng/mL CSF1. Dishes were placed on ice and cells were immediately washed with ice-cold PBS and lysed with 50 µL lysis buffer (50 mM HEPES pH 7.5, 150 mM NaCl, 1.5 mM MgCl2, 10% glycerol, 1% Triton X-100, 0.5% desoxycholate, 0.2% sodium dodecyl sulfate, 1 mM ethylene glycol-bis[β-aminoethyl ether]-N,N,N′,N′-tetraacetic acid, 100 mM NaF, 10 mM Na4P2O7, 1 mM Na3VO4, 1% Phosphatase Inhibitor Cocktail 3 [Sigma-Aldrich], 1 mM phenylmethyl sulfonyl fluoride, Complete Protease Inhibitor Cocktail [Roche CustomBiotech; 1 tablet/10 mL], and 50 U/mL Benzonase [Sigma-Aldrich]). Lysed cells were scraped into Eppendorf tubes, incubated on ice for 20 min, and centrifuged at 4 °C for 10 min at 13,000 rpm; supernatants (lysates) were transferred into new tubes and stored at −80 °C.
Protein concentrations were determined using Pierce bicinchoninic acid assay (Thermo Fisher Scientific) and 40 µg/lane of total lysate was separated by SDS-PAGE on 4–12% Criterion XT Bis–Tris Gels (Bio-Rad) and subsequently transferred to polyvinylidene difluoride membranes using the Trans Blot Turbo Blotting System (Bio-Rad). For antigen detection, membranes were blocked with PBS Odyssey blocking reagent (LI-COR Biosciences) for 1 h at room temperature (RT). Primary antibodies were incubated overnight at 4 °C and the fluorescent secondary antibodies were incubated for 1 h at RT. After each antibody incubation, blots were washed with PBS with 0.05% Tween 20 (Carl Roth) for 15–30 min at RT. Fluorescent signals were quantitatively captured using the Odyssey DLx Infrared Imaging System (LI-COR Biosciences) and the half-maximal inhibitory concentration (IC50) values were calculated using GraphPad software (version 7 or newer).

CNC(=O)c1cc(Oc2ccc(NC(=O)Nc3ccc(Cl)c(C(F)(F)F)c3)c(F)c2)ccn1 [REG, Regorafenib]
IC50 (RAW264.7 cells, drug 1 h, CSF1 100 ng/mL 2 min, mean ± SD (replicates), M-4, M-5 from pCSF1R bands without relating to total CSF1R, read-out: Mean kinase IC50 values: P(Y559)CSF1R [WB]): 59 ± 16 nM
IC50 (RAW264.7 cells, drug 1 h, CSF1 100 ng/mL 2 min, mean ± SD (replicates), M-4, M-5 from pCSF1R bands without relating to total CSF1R, read-out: Mean kinase IC50 values: P(Y721)CSF1R [WB]): 27 ± 14 nM
IC50 (approximate value of the discussion, read-out: IC50, murine CSF1R in RAW264.7 macrophages): ~30 nM
